Measurements: patent US11000033B2, “Ketone or oxime compound, and herbicide” (NISSAN CHEMICAL CORPORATION, priority 2014, dated 2021)

Legend:
Assay type in all cases: in vivo
[1] = test system: Veronica persica; experiment: Test Example 4: herbicidal effect by soil treatment (symbol R); conditions: application herbicide amount 320 g/ha
How it was run: (§1)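 Seeds were sown in sterilized diluvial soil, covered with about 1.5 cm of soil, and the soil surface was sprayed with a water-diluted emulsion of the compound at a predetermined rate. Plants grew in a greenhouse at 25° C. to 30° C.; effects were scored visually 3 weeks after application.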

[2] = test system: wheat; experiment: Test Example 4: effect on crop by soil treatment (symbol e); conditions: application herbicide amount 320 g/ha
How it was run: (§2)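 Grown at 25° C. to 30° C. in a greenhouse, the crops came from seed sown spot-wise in sterilized diluvial soil under roughly 1.5 cm of covering soil.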

[3] = test system: rice; experiment: Test Example 4: effect on crop by soil treatment (symbol b); conditions: application herbicide amount 320 g/ha
How it was run: as §2

[4] = test system: Avena fatua; experiment: Test Example 4: herbicidal effect by soil treatment (symbol I); conditions: application herbicide amount 320 g/ha
How it was run: as §1

[5] = test system: Stellaria media; experiment: Test Example 4: herbicidal effect by soil treatment (symbol P); conditions: application herbicide amount 320 g/ha
How it was run: as §1

[6] = test system: Apera spica-venti; experiment: Test Example 4: herbicidal effect by soil treatment (symbol L); conditions: application herbicide amount 320 g/ha
How it was run: as §1

[7] = test system: Abutilon theophrasti; experiment: Test Example 4: herbicidal effect by soil treatment (symbol M); conditions: application herbicide amount 320 g/ha
How it was run: as §1

[8] = test system: Chenopodium album; experiment: Test Example 5: herbicidal effect by foliage application, plastic box (symbol O); conditions: 320 g/ha, 3 weeks after application
How it was run: (§3)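 After sowing into sterilized diluvial soil and growing two weeks under glass at 25° C. to 30° C., seedlings receive a uniform foliar spray of diluted emulsion. Damage is judged visually three weeks on.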

[9] = test system: soybean; experiment: Test Example 4: effect on crop by soil treatment (symbol d); conditions: application herbicide amount 320 g/ha
How it was run: as §2

[10] = test system: Alopecurus myosuroides; experiment: Test Example 4: herbicidal effect by soil treatment (symbol J); conditions: application herbicide amount 320 g/ha
How it was run: as §1

[11] = test system: Digitaria ciliaris; experiment: Test Example 5: herbicidal effect by foliage application, plastic box (symbol F); conditions: 320 g/ha, 3 weeks after application
How it was run: as §3

[12] = test system: Scirpus juncoides; experiment: Test Example 1: herbicidal activity, application before weed generation in submerged conditions (symbol B); conditions: application herbicide amount 320 g/ha
How it was run: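 Compound emulsion was diluted to a set herbicide amount and applied to the water surface on the sowing day, into submerged (4 cm) alluvial-soil pots sown with mixed weed seeds and transplanted 2.5-leaf rice. Pots were held in a 25–30 °C greenhouse, and weeds were scored 0–5 by herbicidal ratio after 3 weeks.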

[13] = test system: Alopecurus myosuroides; experiment: Test Example 5: herbicidal effect by foliage application, plastic box (symbol J); conditions: 320 g/ha, 3 weeks after application
How it was run: as §3

[14] = test system: Monochoria vaginalis; experiment: Test Example 2: herbicidal activity, application during weed generation in submerged conditions (symbol C); conditions: Table 23; application herbicide amount 320 g/ha; grade 0-5 by criteria of Test Example 1
How it was run: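 Submerged alluvial soil (4 cm) sown with mixed seed; greenhouse 25–30° C. 1–2 leaf: diluted emulsion onto water surface, preset dose. Visual score, 3 wk.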

[15] = test system: Setaria viridis; experiment: Test Example 4: herbicidal effect by soil treatment (symbol G); conditions: application herbicide amount 320 g/ha
How it was run: as §1

[16] = test system: Echinochloa crus-galli var. crus-galli; experiment: Test Example 5: herbicidal effect by foliage application, plastic box (symbol H); conditions: 320 g/ha, 3 weeks after application
How it was run: as §3

[17] = test system: rice plant; experiment: Test Example 5: effect on crop by foliage application, plastic box (symbol b); conditions: 320 g/ha, 3 weeks after application
How it was run: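 In a plastic box 7 cm deep filled with sterilized diluvial soil, seeds of crops and weeds such as Digitaria ciliaris, Avena fatua and Amaranthus retroflexus are sown in spots and covered with about 1.5 cm of soil before greenhouse growth at 25–30° C.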

SMILES	Herbicidal effect grade, R: Veronica persica [1]	Effect on crop grade, e: wheat [2]	Effect on crop grade, b: directly sowed rice plant [3]	Herbicidal effect grade, I: Avena fatua [4]	Herbicidal effect grade, P: Stellaria media [5]	Herbicidal effect grade, L: Apera spica-venti [6]	Herbicidal effect grade, M: Abutilon theophrasti [7]	O: Chenopodium album, herbicidal effect grade [8]	Effect on crop grade, d: soybean [9]	Herbicidal effect grade, J: Alopecurus myosuroides [10]	F: Digitaria ciliaris, herbicidal effect grade [11]	B (Scirpus juncoides) herbicidal effect grade [12]	J: Alopecurus myosuroides, herbicidal effect grade [13]	Herbicidal effect grade, C: Monochoria vaginalis [14]	Herbicidal effect grade, G: Setaria viridis [15]	H: Echinochloa crus-galli var. crus-galli, herbicidal effect grade [16]	b: directly sowed rice plant, effect on crop grade [17]
CC(CC1CC(O)=C(c2c(C)cc(-c3ccc(Cl)cc3)cc2C)C1=O)=NOCC(F)(F)F (stereo not shown) [9-024]	4 (Herbicidal ratio of 70% or higher and lower than 90%)	2 (Herbicidal ratio of 20% or higher and lower than 40%)	5 (Herbicidal ratio of 90% or more (almost completely withered))	3 (Herbicidal ratio of 40% or higher and lower than 70%)	4 (Herbicidal ratio of 70% or higher and lower than 90%)	5 (Herbicidal ratio of 90% or more (almost completely withered))	0 (Herbicidal ratio of 5% or lower (almost no effect))	4 (Herbicidal ratio of 70% or higher and lower than 90%)	0 (Herbicidal ratio of 5% or lower (almost no effect))	5 (Herbicidal ratio of 90% or more (almost completely withered))	5 (Herbicidal ratio of 90% or more (almost completely withered))	4 (Herbicidal ratio of 70% or higher and lower than 90%)	5 (Herbicidal ratio of 90% or more (almost completely withered))	1 (Herbicidal ratio of 5% or higher and lower than 20%)	5 (Herbicidal ratio of 90% or more (almost completely withered))	5 (Herbicidal ratio of 90% or more (almost completely withered))	5 (Herbicidal ratio of 90% or more (almost completely withered))
COCCON=C(CC1CC(O)=C(c2c(C)cc(-n3cc(Cl)cn3)cc2C)C1=O)C(C)C (stereo not shown) [9-022]	0 (Herbicidal ratio of 5% or lower (almost no effect))	0 (Herbicidal ratio of 5% or lower (almost no effect))	4 (Herbicidal ratio of 70% or higher and lower than 90%)	0 (Herbicidal ratio of 5% or lower (almost no effect))	0 (Herbicidal ratio of 5% or lower (almost no effect))	0 (Herbicidal ratio of 5% or lower (almost no effect))	0 (Herbicidal ratio of 5% or lower (almost no effect))	0 (Herbicidal ratio of 5% or lower (almost no effect))	0 (Herbicidal ratio of 5% or lower (almost no effect))	0 (Herbicidal ratio of 5% or lower (almost no effect))	5 (Herbicidal ratio of 90% or more (almost completely withered))	3 (Herbicidal ratio of 40% or higher and lower than 70%)	2 (Herbicidal ratio of 20% or higher and lower than 40%)	0 (Herbicidal ratio of 5% or lower (almost no effect))	5 (Herbicidal ratio of 90% or more (almost completely withered))	5 (Herbicidal ratio of 90% or more (almost completely withered))	5 (Herbicidal ratio of 90% or more (almost completely withered))
